Measurements reported in PubChem BioAssay AID2060500 (Molecular Pharmacology Branch, DTP, NCI, 2025).
Where “and” joins values, the source holds several entries; their conditions need not be identical. Identical values can stand only once. Blank lines part the entries; values can stand above or below the compound they belong to.

Tested on: 596521-263-R-J1-PDC complex spheroids, viability % of control
Assay: Anticancer human tumor 596521-263-R-J1-PDC patient-derived soft tissue sarcoma cell line growth inhibition [GQUAD]
Conditions: for viability, T/C: stronger effect = lower value
Description: DNA G-quadruplex Stabilizer Agents in Combinations in Complex Spheroids
A high-throughput screen of multi-cell type tumor spheroids was designed to identify active combinations of DNA G-quadruplex stabilizer agents and targeted small molecules. Complex spheroids include a stromal component modeled by human endothelial cells (HUVEC) and fibroblasts modeled by human mesenchymal stem cells (MSCs). The concentration ranges selected for each drug and investigational agent were based upon clinically achievable concentrations if the clinical Cmax of the agent was known.
Compounds. The drugs and investigational agents: pidnarulex (CX-5461; NSC782164), APTO-253 (NSC789042), BRACO-19 (NSC847499), peposertib (NSC802822), ceralasertib (NSC780249), elimusertib (NSC800525), camonsertib (NSC841442), AZD-1390 (NSC803789), olaparib (NSC753686), talazoparib (NSC767125), ART-558 (NSC835418), sotorasib (NSC818433), MRTX-1133 (NSC836407), SN-38 (NSC673596), topotecan (NSC609699), etoposide (NSC141540), doxorubicin (NSC123127), gemcitabine (NSC613327), 5-fluorouracil (NSC19893), paclitaxel (NSC125973), vemurafenib (NSC761431), panobinostat (NSC761190), R-306465 (JNJ-16241199; NSC773264), adavosertib (NSC754352), TP-3654 (NSC805149), carboplatin (NSC241240), KSQ-4279 (NSC840948), and staurosporine (NSC755774) were obtained from the National Cancer Institute (NCI) Developmental Therapeutics Program Chemical Repository (34). The FDA-approved anticancer drug set is available from the NCI Developmental Therapeutics Program. […] The stock solutions were prepared in dimethyl sulfoxide (DMSO, Sigma-Aldrich, St. Louis, MO, cat. D2650) at 800-fold the tested concentration and stored at -70 degrees C prior to their use. All drugs and investigational agents were tested over a range starting from a high concentration at or near the clinical Cmax and decreasing in half-log increments. If the clinical Cmax for an agent had not been determined, the highest concentration tested was 10 microM.
2.3 Cell Culture. All cells were maintained in an incubator at 37 degrees C and 5% CO2 with 95% humidity. The PDC lines were cultured according to standard operating procedures established by the NCI PDMR. All PDCs were thawed and cultured in Matrigel-coated flasks prepared with a working solution of 1X Ham's F-12 nutrient mix, without supplementation (Invitrogen, cat. 11765054), 100 U/mL penicillin-streptomycin (Invitrogen, cat. 15140122), and 2.5% Matrigel (Corning Inc., cat. 354248) for the first three passages. The 857933-349-R-J2-PDC line was cultured in 6C/Colon 1B media, which includes advanced DMEM/F-12 (Thermo Fisher Scientific, cat. 12634028), 10 mM HEPES (Thermo Fisher Scientific, cat. 15630080), 1X GlutaMAX supplement (Thermo Fisher Scientific, cat. 35050061), 0.1 mg/mL primocin (InvivoGen, cat. ant-pm-2), 10% defined fetal bovine serum, heat inactivated (HyClone Laboratories Inc., cat. SH30070.03HI), 50% L-WRN conditioned media (ATCC, cat. CRL-3276), 1.25 mM N-Acetyl-L-cysteine (Sigma-Aldrich, cat. A9165), 10 mM nicotinamide (Sigma-Aldrich, cat. N0636), 1X B-27 supplement (Thermo Fisher Scientific, cat. 17504044), 1X N-2 supplement (Thermo Fisher Scientific, cat. 17502048), 10 microM Y-27632 dihydrochloride (Tocris Bioscience, cat. 1254), and 50 ng/mL human EGF recombinant protein (Thermo Fisher Scientific, cat. PHG0311). The 485176-168-R4-J1-PDC line was cultured in Panc media, which includes all 6C/Colon 1B media components plus 100 ng/mL human FGF-10 (Thermo Fisher Scientific, cat. 100-26), 500 nM SB-431542 (Selleckchem, cat. S1067), and gastrin (Tocris, cat. 3006).
[…]
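Note: spheroids exposed to drugs for 7 days before viability reading.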

Structure (SMILES): COc1cc(C2c3cc4c(cc3C(OC3OC5COC(C)OC5C(O)C3O)C3COC(=O)C23)OCO4)cc(OC)c1O (stereo unspecified)
viability, T/C (compound 0.0316 µM): 107% and 103% (2×)
viability, T/C (compound 0.1 µM): 87% and 88.9% and 88.6%
viability, T/C (compound 0.316 µM): 87.5% and 92% and 89.4%
viability, T/C (compound 1 µM): 60.7% and 62.7% and 57.5%
viability, T/C (compound 3.16 µM): 58.4% and 54.6% and 68.8%
viability, T/C (compound 10 µM): 43.3% and 45.5% and 49.7%
IC50 (curve of compound): 5480 nM and 4380 nM and > 10000 nM

Structure (SMILES): COc1ccc([C@@H](O)c2cc(-c3ncnc4cc(N5CCOCC5)ccc34)c(F)cc2Cl)nn1
viability, T/C (compound 0.0316 µM): 102% and 104% and 98.4%
viability, T/C (compound 0.1 µM): 96.8% and 88% and 99.3%
viability, T/C (compound 0.316 µM): 89.7% and 79.9% and 93.3%
viability, T/C (compound 1 µM): 77.9% and 79.6% and 88.5%
viability, T/C (compound 3.16 µM): 66.9% and 63.6% and 80%
viability, T/C (compound 10 µM): 51% and 47.4% and 51.9%
IC50 (curve of compound): > 10000 nM and 9830 nM

Structure (SMILES): COc1cccc2c1C(=O)c1c(O)c3c(c(O)c1C2=O)CC(O)(C(=O)CO)CC3OC1CC(N)C(O)C(C)O1 (stereo unspecified)
viability, T/C (compound 0.0316 µM): 93% and 105% and 97.4%
viability, T/C (compound 0.1 µM): 74.8% and 74.5% and 88.6%
viability, T/C (compound 0.316 µM): 63.1% and 58% and 65.8%
viability, T/C (compound 1 µM): 58.1% and 54.2% and 56.5%
viability, T/C (compound 3.16 µM): 29.4% and 28.7% and 29.6%
viability, T/C (compound 10 µM): 4.46% and 3.41% and 4.53%
IC50 (curve of compound): 1060 nM and 723 nM and 1130 nM

Structure (SMILES): Cc1[nH]c2ccccc2c1CCNCc1ccc(/C=C/C(=O)NO)cc1
viability, T/C (compound 0.000999 µM): 101% and 103% and 95.3%
viability, T/C (compound 0.00316 µM): 90.3% and 84.7% and 95.6%
viability, T/C (compound 0.00999 µM): 96.9% and 70% and 80.2%
viability, T/C (compound 0.0316 µM): 96.4% and 54% and 57.8%
viability, T/C (compound 0.0999 µM): 101% and 27.6% and 35.7%
IC50 (curve of compound): > 316 nM and 33.7 nM and 49.9 nM

Structure (SMILES): Cc1cccc(N(C)C(=O)C2C(O)CCN2c2nc(C)cc(C(F)(F)F)c2C#N)c1 (stereo unspecified)
viability, T/C (compound 0.0316 µM): 113% and 94.7% and 106%
viability, T/C (compound 0.1 µM): 103% and 98.2% and 94.6%
viability, T/C (compound 0.316 µM): 95.1% and 106% and 98.1%
viability, T/C (compound 1 µM): 101% and 98.4% and 112%
viability, T/C (compound 3.16 µM): 89.7% and 108% and 114%
viability, T/C (compound 10 µM): 91.4% and 96.3% and 101%
IC50 (curve of compound): > 10000 nM

Structure (SMILES): Cc1cnc(CNC(=O)c2c(=O)c3ccc(N4CCCN(C)CC4)nc3n3c2sc2ccccc23)cn1
viability, T/C (compound 0.0316 µM): 99% [middle of 12 runs]
viability, T/C (compound 0.1 µM): 93.1% [middle of 12 runs]
viability, T/C (compound 0.316 µM): 80.5% [middle of 12 runs]
viability, T/C (compound 1 µM): 68% [middle of 12 runs]
viability, T/C (compound 3.16 µM): 56.4% [middle of 12 runs]
viability, T/C (compound 10 µM): 47.9% [middle of 12 runs]

Structure (SMILES): Nc1ccn(C2OC(CO)C(O)C2(F)F)c(=O)n1 (stereo unspecified)
viability, T/C (compound 0.0316 µM): 53.5% and 48% and 59.9%
viability, T/C (compound 0.1 µM): 35.8% and 49.4% and 43.2%
viability, T/C (compound 0.316 µM): 45% and 45.2% and 42.6%
viability, T/C (compound 1 µM): 42.5% and 40.8% and 52%
viability, T/C (compound 3.16 µM): 42.5% and 38.6% and 49.9%
viability, T/C (compound 10 µM): 33.4% and 33.3% and 40.1%
IC50 (curve of compound): < 31.6 nM and 35.4 nM and 168 nM

Now from value to compound, other results behind:

IC50 (curve of compound): > 10000 nM and 1580 nM
Structure (SMILES): COc1ncnc(C2CC2)c1-c1ncc2cnn(Cc3ccc(-c4nc(C(F)(F)F)cn4C(C)C)cc3)c2n1
viability, T/C (compound 0.0316 µM): 98.6% and 108% and 92.8%
viability, T/C (compound 0.1 µM): 105% and 94.8% and 99.3%
viability, T/C (compound 0.316 µM): 97.8% and 85.6% and 98.5%
viability, T/C (compound 1 µM): 100% and 65.5% and 81.5%
viability, T/C (compound 3.16 µM): 99.2% and 28.8% and 94.3%

IC50 (compound alone, run of 04/16/2024): > 10000 nM
IC50 (compound alone, run of 04/22/2024): > 10000 nM
Structure (SMILES): Cc1[nH]c2ccc(F)cc2c1-c1nc2c3cccnc3c3ncccc3c2[nH]1
viability, T/C (compound 0.0316 µM): 102% [middle of 12 runs]
viability, T/C (compound 0.1 µM): 102% [middle of 12 runs]
viability, T/C (compound 0.316 µM): 101% [middle of 12 runs]
viability, T/C (compound 1 µM): 101% [middle of 12 runs]
viability, T/C (compound 3.16 µM): 93.6% [middle of 12 runs]
viability, T/C (compound 10 µM): 85.7% [middle of 12 runs]

IC50 (curve of compound): > 316 nM
Structure (SMILES): Cn1ncnc1[C@H]1c2n[nH]c(=O)c3cc(F)cc(c23)N[C@@H]1c1ccc(F)cc1
viability, T/C (compound 0.000999 µM): 92.8% and 91% and 93.5%
viability, T/C (compound 0.00316 µM): 93.2% and 98.2% and 100%
viability, T/C (compound 0.00999 µM): 93.6% and 94% and 101%
viability, T/C (compound 0.0316 µM): 94.5% and 86.7% and 93.1%
viability, T/C (compound 0.0999 µM): 89.3% and 80.8% and 106%
viability, T/C (compound 0.316 µM): 92.8% and 88% and 76.6%

IC50 (curve of compound): < 31.6 nM and 117 nM and 121 nM
Structure (SMILES): O=C(NO)c1cnc(N2CCN(S(=O)(=O)c3ccc4ccccc4c3)CC2)nc1
viability, T/C (compound 0.0316 µM): 39.6% and 75% and 74.9%
viability, T/C (compound 0.1 µM): 25.7% and 56.3% and 57.3%
viability, T/C (compound 0.316 µM): 26.8% and 8.85% and 14%

IC50 (curve of compound): > 10000 nM
Structure (SMILES): O=C(c1cc(Cc2n[nH]c(=O)c3ccccc23)ccc1F)N1CCN(C(=O)C2CC2)CC1
viability, T/C (compound 0.0316 µM): 102% and 96.8% and 103%
viability, T/C (compound 0.1 µM): 95.1% and 97.1% and 87.4%
viability, T/C (compound 0.316 µM): 87.9% and 88.9% and 100%
viability, T/C (compound 1 µM): 89.7% and 89.3% and 95.3%
viability, T/C (compound 3.16 µM): 92.5% and 79.6% and 86.6%
viability, T/C (compound 10 µM): 68.4% and 67.2% and 66.9%

IC50 (curve of compound): > 10000 nM
Structure (SMILES): O=c1[nH]cc(F)c(=O)[nH]1
viability, T/C (compound 0.0316 µM): 95.6% and 102% and 106%
viability, T/C (compound 0.1 µM): 105% and 100% and 94.9%
viability, T/C (compound 0.316 µM): 105% (2×) and 107%
viability, T/C (compound 1 µM): 98.4% and 114% and 99.3%
viability, T/C (compound 3.16 µM): 94.5% and 97.5% and 97.7%
viability, T/C (compound 10 µM): 97.2% and 97.8% and 93.8%
